From ChEMBL document CHEMBL1145695, “Biologically active acylglycerides from the berries of saw-palmetto (Serenoa repens)” (J Nat Prod, 1997)
In brackets after ≈: the same amount, converted by molar mass.

Tests used:
[1] = Toxicity against brine shrimp; type: organism-based; conditions: artemia, in vivo
MIA PaCa-2 = assay: Cytotoxicity against human MIAPaCa2 cells after 7 days by MTT assay; type: functional; conditions: MIA PaCa-2, 168 h, read-out: ED50 (the source's name)
A498 = assay: Cytotoxicity against human A498 cells after 7 days by MTT assay; type: functional; conditions: A498, 168 h, read-out: ED50 (the source's name)
PC-3 = assay: Cytotoxicity against human PC3 cells after 7 days by MTT assay; type: functional; conditions: PC-3, 168 h, read-out: ED50 (the source's name)

SMILES | LC50 [1] [µg/mL] | EC50 (MIA PaCa-2) [µg/mL] | EC50 (A498) [µg/mL] | EC50 (PC-3) [µg/mL]
CCCCCCCCCCCCCC(=O)OCC(O)CO (stereo unspecified) | 53.3 (≈ 176 µM) | 1.87 (≈ 6.18 µM) | 3.58 (≈ 11.8 µM) | 8.84 (≈ 29.2 µM)
COc1cccc2c1C(=O)c1c(O)c3c(c(O)c1C2=O)C[C@@](O)(C(=O)CO)C[C@@H]3O[C@H]1C[C@H](N)[C@H](O)[C@H](C)O1 [DOXORUBICIN] |  | 0.0392 (≈ 0.0721 µM) | 0.0122 (≈ 0.0224 µM) | 0.0119 (≈ 0.0219 µM)
CCCCCCCCCCCC(=O)OCC(O)CO (stereo unspecified) [GLYCEROL MONOLAURATE] | 79.2 (≈ 289 µM) | 2.33 (≈ 8.49 µM) | 3.77 (≈ 13.7 µM) | 23.3 (≈ 84.8 µM)
